From ChEMBL document CHEMBL2074039 (Biochem Pharmacol, 1993)

Tests used:
[1] = biological target: T1, ATP-dependent translocase ABCB1 (Homo sapiens, UniProt P08183); assay: TP_TRANSPORTER: inhibition of Azidopine photoaffinity labelling (Azidopine: 0.2 uM, trans-flupenthioxol: 1 uM) in membranes from KB/V20C cells; format: functional, cell membranes, Membrane
[2] = biological target: T1, ATP-dependent translocase ABCB1; assay: TP_TRANSPORTER: increase in Doxorubicin intracellular accumulation (Doxorubicin: 0-20 uM, trans-flupenthixol: 5 uM) in MCF-7/ADR cells; format: functional, cell-based; details: nci/adr-res

T1 sequence (P08183 whole entry): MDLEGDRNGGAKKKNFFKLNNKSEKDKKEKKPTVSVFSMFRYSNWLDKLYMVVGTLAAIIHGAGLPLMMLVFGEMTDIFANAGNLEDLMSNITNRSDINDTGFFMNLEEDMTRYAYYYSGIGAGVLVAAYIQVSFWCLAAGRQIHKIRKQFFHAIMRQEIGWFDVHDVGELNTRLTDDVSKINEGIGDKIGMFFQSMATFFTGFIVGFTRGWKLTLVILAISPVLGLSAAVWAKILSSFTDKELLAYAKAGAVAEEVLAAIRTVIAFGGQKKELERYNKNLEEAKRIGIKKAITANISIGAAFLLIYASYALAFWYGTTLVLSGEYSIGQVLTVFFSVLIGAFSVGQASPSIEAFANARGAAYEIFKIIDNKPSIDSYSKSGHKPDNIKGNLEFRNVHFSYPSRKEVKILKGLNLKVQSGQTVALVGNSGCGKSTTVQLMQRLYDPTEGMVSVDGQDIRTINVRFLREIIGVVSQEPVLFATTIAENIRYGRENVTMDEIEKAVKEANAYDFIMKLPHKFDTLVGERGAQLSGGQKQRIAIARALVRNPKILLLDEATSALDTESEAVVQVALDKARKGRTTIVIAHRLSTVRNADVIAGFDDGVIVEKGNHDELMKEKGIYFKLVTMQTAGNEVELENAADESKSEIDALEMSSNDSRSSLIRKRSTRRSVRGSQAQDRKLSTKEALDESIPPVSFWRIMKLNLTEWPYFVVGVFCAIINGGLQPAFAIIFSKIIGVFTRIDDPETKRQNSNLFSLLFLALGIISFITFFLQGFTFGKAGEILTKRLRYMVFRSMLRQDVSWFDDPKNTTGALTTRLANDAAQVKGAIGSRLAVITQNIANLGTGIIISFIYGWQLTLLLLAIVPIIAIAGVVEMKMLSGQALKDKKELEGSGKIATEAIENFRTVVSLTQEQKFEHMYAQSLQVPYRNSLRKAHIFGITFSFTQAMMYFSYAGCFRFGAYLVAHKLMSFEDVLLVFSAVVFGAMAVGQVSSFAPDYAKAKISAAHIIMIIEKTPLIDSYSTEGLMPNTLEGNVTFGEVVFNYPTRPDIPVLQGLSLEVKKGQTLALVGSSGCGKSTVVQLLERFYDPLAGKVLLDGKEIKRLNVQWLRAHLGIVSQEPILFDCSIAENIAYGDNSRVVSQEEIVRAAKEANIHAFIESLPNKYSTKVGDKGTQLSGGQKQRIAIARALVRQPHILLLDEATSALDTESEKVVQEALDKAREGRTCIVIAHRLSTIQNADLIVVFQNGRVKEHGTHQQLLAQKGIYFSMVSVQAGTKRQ

Which results are given for `OCCN1CCN(CC/C=C2\c3ccccc3Sc3ccc(C(F)(F)F)cc32)CC1` [E-FLUPENTIXOL]?
Activity [1]: inhibitor [+]; Activity [2]: inhibitor [2 to 3-fold]
